Here are results for seven compounds from ChEMBL document CHEMBL1136211, “Design of quinolinedione-based geldanamycin analogues” (2003).

What all share (format): functional
Assay [1] relates to Cancer cell lines. In words: Concentration required to kill cells.
Assay [2] has as its system Cancer cell lines. Put plainly: Concentration required to inhibit growth of cells in 60 cancer cell lines.
Assay [3] has as its system Cancer cell lines. In words: Concentration required to inhibit total growth of cells in 60 cancer cell lines. The conditions noted are these: read-out: Log TGI (converted).

Each structure is given as a SMILES string.

One may read the LC50 as the concentration lethal to half of the exposed cells or organisms. Usually GI50 stands for the concentration that inhibits growth by half. A lower GI50 goes with greater sensitivity of the cells. Broadly, the TGI is the concentration at which net growth stops.

As for `O=C1C(N2CC2)=CC(=O)c2nc(-c3ccccc3)ccc21`, the 50% lethal concentration (LC50) in assay [1] was 4070 nM. The compound also had a GI50 in assay [2] of 52.5 nM. Besides, in assay [3], the TGI is 513 nM.

On to `O=C1C=C(N2CC2)C(=O)c2nc(-c3ccccc3)ccc21`, for which the LC50 in assay [1] is 11200 nM. In assay [2], this compound had a GI50 of 263 nM. Moreover, the TGI in assay [3] was 1780 nM.

Take `O=C1C(N2CC2)=CC(=O)c2nc(-c3ccc4ccccc4c3)ccc21`: the LC50 in assay [1] was 5620 nM. In assay [2], this compound showed a GI50 of 204 nM. The TGI in assay [3] was 1070 nM.

As for `O=C1C(NCCCl)=CC(=O)c2nc(-c3ccccc3)ccc21`, in assay [1], the LC50 is 2040 nM. In assay [2], this compound had a 50% growth inhibitory concentration (GI50) of 27.5 nM. Further, the TGI in assay [3] was 324 nM.

In the case of `O=C1C=C(N2CC2)C(=O)c2nc(-c3ccc4ccccc4c3)ccc21`, the LC50 in assay [1] was 40700 nM. Moreover, the concentration for 50% growth inhibition (GI50) in assay [2] is 3470 nM. In addition, in assay [3], the TGI was 10700 nM.

In assay [1], `O=C1C(N2CC2)=CC(=O)c2nc(-c3ccccn3)ccc21` had a 50% lethal concentration (LC50) of 9770 nM. Moreover, it took 646 nM to inhibit growth in assay [2] by half (GI50). Also, in assay [3], the TGI is 2450 nM.

`O=C1/C(=N/CCO)C=C(O)c2nc(-c3ccccc3)ccc21` had an LC50 in assay [1] of 60300 nM. Moreover, the GI50 in assay [2] is 2950 nM. Further, the TGI in assay [3] was 20000 nM.
